Source: the supplement of paper PMC10307832

Tests used:
Experiment in all cases: relative viability (nuclei count vs DMSO), 5 days (fraction); higher = more cells survive
A-427 = test system: A-427
Summary of the method: (§1)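 Relative viability equals treated-well nuclei counts divided by vehicle-well nuclei counts. Counts came from 4× images of lung cancer cell lines grown in 1536-well plates for 5 days after pin-tool dosing on the day after seeding. Dosing used one drug alone or a fixed anchor-drug dose plus five library-drug doses (not always all listed) in √10 steps, and values are medians of duplicate plates.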

COR-L 105 = test system: COR-L 105
Summary of the method: as §1

EPLC-272H = test system: EPLC-272H
Summary of the method: as §1

HCC-366 = test system: HCC-366
Summary of the method: as §1

HCC-78 = test system: HCC-78
Summary of the method: as §1

HOP-62 = test system: HOP-62
Summary of the method: as §1

LC-2-ad = test system: LC-2-ad
Summary of the method: as §1

LCLC-97TM1 = test system: LCLC-97TM1
Summary of the method: as §1

LU99A = test system: LU99A
Summary of the method: as §1

LXF-289 = test system: LXF-289
Summary of the method: as §1

NCI-H1755 = test system: NCI-H1755
Summary of the method: as §1

NCI-H1792 = test system: NCI-H1792
Summary of the method: as §1

NCI-H1793 = test system: NCI-H1793
Summary of the method: as §1

NCI-H1915 = test system: NCI-H1915
Summary of the method: as §1

NCI-H1944 = test system: NCI-H1944
Summary of the method: as §1

NCI-H1975 = test system: NCI-H1975
Summary of the method: as §1

NCI-H2085 = test system: NCI-H2085
Summary of the method: as §1

NCI-H2170 = test system: NCI-H2170
Summary of the method: as §1

NCI-H358 = test system: NCI-H358
Summary of the method: as §1

NCI-H460 = test system: NCI-H460
Summary of the method: as §1

SK-LU-1 = test system: SK-LU-1
Summary of the method: as §1

SW 900 = test system: SW 900
Summary of the method: as §1

UMC-11 = test system: UMC-11
Summary of the method: as §1

O=C(O)c1ccc(-c2c[nH]c3ncc(-c4ccccc4)cc23)cc1C1CCCC1 + O=C(c1cc(Cc2n[nH]c(=O)c3ccccc23)ccc1F)N1CCN(C(=O)C2CC2)CC1 [Olaparib] (partner 8 µM) showed a relative viability (A-427; first compound 0.04 µM) of 0.706, a relative viability (A-427; first compound 0.1265 µM) of 0.845 and a relative viability (A-427; first compound 0.4 µM) of 0.644. The relative viability (A-427; first compound 1.265 µM) was 0.573, the relative viability (COR-L 105; first compound 0.04 µM) was 0.723 and the relative viability (COR-L 105; first compound 0.1265 µM) was 0.682. It also gave a relative viability (COR-L 105; first compound 0.4 µM) of 0.75, a relative viability (COR-L 105; first compound 1.265 µM) of 0.647 and a relative viability (EPLC-272H; first compound 0.04 µM) of 0.924. For the same compound, the relative viability (EPLC-272H; first compound 0.1265 µM) was 1.05, the relative viability (EPLC-272H; first compound 0.4 µM) was 0.566 and the relative viability (EPLC-272H; first compound 1.265 µM) was 0.257. The relative viability (HCC-366; first compound 0.04 µM) was 0.362, the relative viability (HCC-366; first compound 0.1265 µM) was 0.419 and the relative viability (HCC-366; first compound 0.4 µM) was 0.422. It also gave a relative viability (HCC-366; first compound 1.265 µM) of 0.376, a relative viability (HCC-78; first compound 0.1265 µM) of 0.814 and a relative viability (HCC-78; first compound 0.4 µM) of 0.784. For the same compound, the relative viability (HCC-78; first compound 1.265 µM) was 0.71, the relative viability (HOP-62; first compound 0.04 µM) was 0.352 and the relative viability (HOP-62; first compound 0.1265 µM) was 0.448. The relative viability (HOP-62; first compound 0.4 µM) was 0.356, the relative viability (HOP-62; first compound 1.265 µM) was 0.382 and the relative viability (LC-2-ad; first compound 0.04 µM) was 0.651. It also gave a relative viability (LC-2-ad; first compound 0.1265 µM) of 0.642, a relative viability (LC-2-ad; first compound 0.4 µM) of 0.623 and a relative viability (LC-2-ad; first compound 1.265 µM) of 0.566. For the same compound, the relative viability (LCLC-97TM1; first compound 0.04 µM) was 0.435, the relative viability (LCLC-97TM1; first compound 0.1265 µM) was 0.54 and the relative viability (LCLC-97TM1; first compound 0.4 µM) was 0.396. For the same compound, the relative viability (LCLC-97TM1; first compound 1.265 µM) was 0.258, the relative viability (LU99A; first compound 0.04 µM) was 0.255 and the relative viability (LU99A; first compound 0.1265 µM) was 0.302. It also gave a relative viability (LU99A; first compound 0.4 µM) of 0.255, a relative viability (LU99A; first compound 1.265 µM) of 0.25 and a relative viability (LXF-289; first compound 0.04 µM) of 1.07. The relative viability (LXF-289; first compound 0.1265 µM) was 0.935, the relative viability (LXF-289; first compound 0.4 µM) was 0.709 and the relative viability (LXF-289; first compound 1.265 µM) was 0.507. For the same compound, the relative viability (NCI-H1755; first compound 0.04 µM) was 0.879, the relative viability (NCI-H1755; first compound 0.1265 µM) was 0.943 and the relative viability (NCI-H1755; first compound 0.4 µM) was 0.885. The relative viability (NCI-H1755; first compound 1.265 µM) was 0.86, the relative viability (NCI-H1792; first compound 0.04 µM) was 0.422 and the relative viability (NCI-H1792; first compound 0.1265 µM) was 0.655. The relative viability (NCI-H1792; first compound 0.4 µM) was 0.446, the relative viability (NCI-H1792; first compound 1.265 µM) was 0.405 and the relative viability (NCI-H1793; first compound 0.04 µM) was 0.878. The relative viability (NCI-H1793; first compound 0.1265 µM) was 1.03, the relative viability (NCI-H1793; first compound 0.4 µM) was 0.963 and the relative viability (NCI-H1793; first compound 1.265 µM) was 0.512. For the same compound, the relative viability (NCI-H1915; first compound 0.04 µM) was 0.266, the relative viability (NCI-H1915; first compound 0.1265 µM) was 0.25 and the relative viability (NCI-H1915; first compound 0.4 µM) was 0.226. The relative viability (NCI-H1915; first compound 1.265 µM) was 0.203, the relative viability (NCI-H1944; first compound 0.04 µM) was 0.421 and the relative viability (NCI-H1944; first compound 0.1265 µM) was 0.444. For the same compound, the relative viability (NCI-H1944; first compound 0.4 µM) was 0.412, the relative viability (NCI-H1944; first compound 1.265 µM) was 0.36 and the relative viability (NCI-H1975; first compound 0.04 µM) was 0.724. For the same compound, the relative viability (NCI-H1975; first compound 0.1265 µM) was 0.801, the relative viability (NCI-H1975; first compound 0.4 µM) was 0.842 and the relative viability (NCI-H1975; first compound 1.265 µM) was 0.539. The relative viability (NCI-H2085; first compound 0.04 µM) was 0.74, the relative viability (NCI-H2085; first compound 0.1265 µM) was 0.793 and the relative viability (NCI-H2085; first compound 0.4 µM) was 0.746. For the same compound, the relative viability (NCI-H2085; first compound 1.265 µM) was 0.474, the relative viability (NCI-H2170; first compound 0.04 µM) was 0.632 and the relative viability (NCI-H2170; first compound 0.1265 µM) was 0.606. For the same compound, the relative viability (NCI-H2170; first compound 0.4 µM) was 0.569, the relative viability (NCI-H2170; first compound 1.265 µM) was 0.468 and the relative viability (NCI-H358; first compound 0.04 µM) was 0.603. It also gave a relative viability (NCI-H358; first compound 0.1265 µM) of 0.657, a relative viability (NCI-H358; first compound 0.4 µM) of 0.529 and a relative viability (NCI-H358; first compound 1.265 µM) of 0.275. For the same compound, the relative viability (NCI-H460; first compound 0.04 µM) was 0.523, the relative viability (NCI-H460; first compound 0.1265 µM) was 0.463 and the relative viability (NCI-H460; first compound 0.4 µM) was 0.456. It also gave a relative viability (NCI-H460; first compound 1.265 µM) of 0.42, a relative viability (SK-LU-1; first compound 0.04 µM) of 0.457 and a relative viability (SK-LU-1; first compound 0.1265 µM) of 0.459. The relative viability (SK-LU-1; first compound 0.4 µM) was 0.512, the relative viability (SK-LU-1; first compound 1.265 µM) was 0.318 and the relative viability (SW 900; first compound 0.04 µM) was 0.768. For the same compound, the relative viability (SW 900; first compound 0.1265 µM) was 1.04, the relative viability (SW 900; first compound 0.4 µM) was 0.702 and the relative viability (SW 900; first compound 1.265 µM) was 0.475. It also gave a relative viability (UMC-11; first compound 0.04 µM) of 0.366, a relative viability (UMC-11; first compound 0.1265 µM) of 0.307 and a relative viability (UMC-11; first compound 0.4 µM) of 0.825. It also gave a relative viability (UMC-11; first compound 1.265 µM) of 0.398.
